Assay results reported in patent publication US5972953A, “Brain cell protective agent” (priority 1993, dated 1999).
Read-outs that look alike come from different tables or passages of the source.

Tested on: cultured nerve cells (cerebral cortex)
Experiment: cells
Format: cell-based, Wistar rat
Conditions: Rattus norvegicus, Cerebral cortex neuron
[1] = 10 mM glutamate, 24 hours at 37° C., LDH leakage, read-out: ED50 (the source's name)

Structure (SMILES) | EC50 [1] [µM] | EC50 (24 h, read-out: ED50) [µM]
Oc1ccc2c3c1O[C@H]1[C@H](N(Cc4ccccc4)CC(c4ccccc4)c4ccccc4)CC[C@@]4(O)[C@@H](C2)N(CC2CC2)CC[C@]314 [Compound 14, 17-cyclopropylmethyl-3,14β-dihydroxy-4,5α-epoxy-6β-[N-(2,2-diphenylethyl)benzylamino)morphinan] | 0.11 | 
CN(C(=O)C1CCCCC1)[C@H]1CC[C@@]2(O)[C@H]3Cc4ccc(O)c5c4[C@@]2(CCN3CC2CC2)[C@H]1O5 [Compound 31, 17-cyclopropylmethyl-3,14β-dihydroxy-4,5α-epoxy-6α-(N-methylcyclohexylcarboxamido)morphinan] | 2.53 | 
O=C(Cc1ccc(Cl)c(Cl)c1)N[C@H]1CC[C@@]2(O)[C@H]3Cc4ccc(O)c5c4[C@@]2(CCN3CC2CC2)[C@H]1O5 [Compound 36, 17-cyclopropylmethyl-3,14β-dihydroxy-4,5α-epoxy-6α-(3,4-dichlorophenylacetoamido) morphinan] | 1.01 | 
CC(C)CN(C(=O)CCCCCc1ccccc1)[C@H]1CC[C@@]2(O)[C@H]3Cc4ccc(O)c5c4[C@@]2(CCN3CC2CC2)[C@H]1O5 [Compound 37, 17-cyclopropylmethyl-3,14β-dihydroxy-4,5α-epoxy-6α-(N-isobutyl-6-phenylhexanoamido)morphinan] | 0.06 | 
CC(C)CN(C(=O)Cc1ccc(Cl)c(Cl)c1)[C@@H]1CC[C@@]2(O)[C@H]3Cc4ccc(O)c5c4[C@@]2(CCN3CC2CC2)[C@H]1O5 [Compound 39, 17-cyclopropylmethyl-3,14β-dihydroxy-4,5α-epoxy-6β-(N-isobutyl-3,4-dichlorophenylacetoamido)morphinan] | 0.39 | 
CN(C(=O)c1ccccc1)[C@@H]1CC[C@@]2(O)[C@H]3Cc4ccc(O)c5c4[C@@]2(CCN3CC2CC2)[C@H]1O5 [Compound 45, 17-cyclopropylmethyl-3,14β-dihydroxy-4,5α-epoxy-6β-(N-methylbenzamido)morphinan] | 3.72 | 
CN(C(=O)Cc1ccccc1)[C@@H]1CC[C@@]2(O)[C@H]3Cc4ccc(O)c5c4[C@@]2(CCN3CC2CC2)[C@H]1O5 [Compound 47, 17-cyclopropylmethyl-3,14β-dihydroxy-4,5α-epoxy-6β-(N-methylphenylacetoamido)morphinan] | 17.1 | 
CCCCOC(=O)N(C)[C@@H]1CC[C@@]2(O)[C@H]3Cc4ccc(O)c5c4[C@@]2(CCN3CC2CC2)[C@H]1O5 [Compound 48, 17-cyclopropylmethyl-3,14β-dihydroxy-4,5α-epoxy-6β-(N-methylbutyroxycarbamido)morphinan] | 7.04 | 
CCCCCC(=O)N(C)[C@@H]1CC[C@@]2(O)[C@H]3Cc4ccc(O)c5c4[C@@]2(CCN3CC2CC2)[C@H]1O5 [Compound 49, 17-cyclopropylmethyl-3,14β-dihydroxy-4,5α-epoxy-6β-(N-methylhexanoamido)morphinan] | 29.9 | 
COc1cccc(/C=C/C(=O)N(C)[C@@H]2CC[C@@]3(O)[C@H]4Cc5ccc(O)c6c5[C@@]3(CCN4CC3CC3)[C@H]2O6)c1 [Compound 50, 17-cyclopropylmethyl-3,14β-dihydroxy-4,5α-epoxy-6β-(N-methyl-3-methoxycinnamamido)morphinan] | 3.44 | 
CN(C(=O)CCC1CCCC1)[C@@H]1CC[C@@]2(O)[C@H]3Cc4ccc(O)c5c4[C@@]2(CCN3CC2CC2)[C@H]1O5 [Compound 51, 17-cyclopropylmethyl-3,14β-dihydroxy-4,5α-epoxy-6β-(N-methyl-3-cyclopentylpropioamido)morphinan] | 13.6 | 
CN(C(=O)c1ccc2ccccc2c1)[C@@H]1CC[C@@]2(O)[C@H]3Cc4ccc(O)c5c4[C@@]2(CCN3CC2CC2)[C@H]1O5 [Compound 52, 17-cyclopropylmethyl-3,14β-dihydroxy-4,5α-epoxy-6β-(N-methyl-2-naphthamido)morphinan] | 1.49 | 
CN(C(=O)/C=C/c1ccccc1C(F)(F)F)[C@@H]1CC[C@@]2(O)[C@H]3Cc4ccc(O)c5c4[C@@]2(CCN3CC2CC2)[C@H]1O5 [Compound 55, 17-cyclopropylmethyl-3,14β-dihydroxy-4,5α-epoxy-6β-(N-methyl-2-trifluoromethylcinnamamido)morphinan] | 1.73 | 
CN(C(=O)/C=C/c1ccc(C(F)(F)F)cc1)[C@@H]1CC[C@@]2(O)[C@H]3Cc4ccc(O)c5c4[C@@]2(CCN3CC2CC2)[C@H]1O5 [Compound 56, 17-cyclopropylmethyl-3,14β-dihydroxy-4,5α-epoxy-6β-(N-methyl-4-trifluoromethylcinnamamido)morphinan] | 1.08 | 
Cc1cccc(/C=C/C(=O)N(CC(C)C)[C@@H]2CC[C@@]3(O)[C@H]4Cc5ccc(O)c6c5[C@@]3(CCN4CC3CC3)[C@H]2O6)c1 [Compound 57, 17-cyclopropylmethyl-3,14β-dihydroxy-4,5α-epoxy-6β-(N-isobutyl-3-methylcinnamamido)morphinan] |  | 0.66
CC(C)CN(C(=O)CCCCCc1ccccc1)[C@@H]1CC[C@@]2(O)[C@H]3Cc4ccc(O)c5c4[C@@]2(CCN3CC2CC2)[C@H]1O5 [Compound 58, 17-cyclopropylmethyl-3,14β-dihydroxy-4,5α-epoxy-6β-(N-isobutyl-6-phenylhexanoamido)morphinan] | 0.1 | 
CC(C)CN(C(=O)CCCCCCCc1ccccc1)[C@@H]1CC[C@@]2(O)[C@H]3Cc4ccc(O)c5c4[C@@]2(CCN3CC2CC2)[C@H]1O5 [Compound 59, 17-cyclopropylmethyl-3,14β-dihydroxy-4,5α-epoxy-6β-(N-isobutyl-8-phenyloctanoamido) morphinan] | 0.48 | 
CC(C)CN(C(=O)CCCCCCCCCCc1ccccc1)[C@@H]1CC[C@@]2(O)[C@H]3Cc4ccc(O)c5c4[C@@]2(CCN3CC2CC2)[C@H]1O5 [Compound 60, 17-cyclopropylmethyl-3,14β-dihydroxy-4,5α-epoxy-6β-(N-isobutyl-11-phenylundecanoamido)morphinan] | 0.09 | 
CC(C)CN(C(=O)CCCCC(=O)c1ccccc1)[C@@H]1CC[C@@]2(O)[C@H]3Cc4ccc(O)c5c4[C@@]2(CCN3CC2CC2)[C@H]1O5 [Compound 61, 17-cyclopropylmethyl-3,14β-dihydroxy-4,5α-epoxy-6β-(N-isobutyl-5-benzoylpentanoamido)morphinan] | 2.22 | 
CC(C)CN(C(=O)CCCCC1CCCCC1)[C@@H]1CC[C@@]2(O)[C@H]3Cc4ccc(O)c5c4[C@@]2(CCN3CC2CC2)[C@H]1O5 [Compound 62, 17-cyclopropylmethyl-3,14β-dihydroxy-4,5α-epoxy-6β-(N-isobutyl-5-cyclohexylpentanoamido)morphinan] | 0.14 | 
CCN(C(=O)/C=C/c1cccc(C(F)(F)F)c1)[C@@H]1CC[C@@]2(O)[C@H]3Cc4ccc(O)c5c4[C@@]2(CCN3CC2CC2)[C@H]1O5 [Compound 63, 17-cyclopropylmethyl-3,14β-dihydroxy-4,5α-epoxy-6β-(N-ethyl-3-trifluoromethylcinnamarido)morphinan] | 1.25 | 
CC(C)N(C(=O)/C=C/c1cccc(C(F)(F)F)c1)[C@@H]1CC[C@@]2(O)[C@H]3Cc4ccc(O)c5c4[C@@]2(CCN3CC2CC2)[C@H]1O5 [Compound 64, 17-cyclopropylmethyl-3,14β-dihydroxy-4,5α-epoxy-6β-(N-isopropyl-3-trifluoromethylcinnamamido)morphinan] | 0.69 | 
CC(C)CN(C(=O)/C=C/c1cccc(C(F)(F)F)c1)[C@@H]1CC[C@@]2(O)[C@H]3Cc4ccc(O)c5c4[C@@]2(CCN3CC2CC2)[C@H]1O5 [Compound 65, 17-cyclopropylmethyl-3,14β-dihydroxy-4,5α-epoxy-6β-(N-isobutyl-3-trifluoromethylcinnamamido)morphinan] |  | 0.31
